The values below come from ChEMBL document CHEMBL1137249, “Cytostatic and antiviral 6-arylpurine ribonucleosides. Part 7: synthesis and evaluation of 6-substituted purine l-ribonucleosides” (Bioorg Med Chem Lett, 2006).

In data set [1] the test system is Hepatitis C virus. Put plainly: Antiviral activity against HCV con1 replicon by HCV subgenomic replicon assay. It counts as functional, organism-based, Hepacivirus hominis. To be noted: genotype 1b con1. (Replicon systems follow genome replication, usually without infectious particles.)
Data set [2] in a line: Cytotoxicity against Huh7 cells expressing HCV con1 replicon. It counts as cell-based, Huh-7. The conditions noted are these: human.
The nature of data set [3]: Cytotoxicity against MT4 cells. Type of data set: cell-based. The conditions noted are these: human.
Data set [4] has as its system Hepatitis C virus. Put plainly: Incorporation by HCV con1 NS5Bdelta55 RNA polymerase upto 1mM. The conditions noted are these: Hepatitis C virus subtype 1b.
Data set [5] has as its system Hepatitis C virus. Put plainly: Inhibition of recombinant HCV con1 NS5Bdelta21 RNA polymerase. More on the design: species or system Hepatitis C virus subtype 1b.

Molecules are shown by their SMILES. Activity calls are given as the source filed them. The calls are words filed in the database; no cut-off is given here.

Regarding `OC[C@@H]1O[C@H](n2cnc3c(-c4ccsc4)ncnc32)[C@@H](O)[C@H]1O`, in data set [1], the EC50 (as a rule, the midpoint of the concentration-response curve) was > 50 µM. In addition, the CC50 – broadly, the concentration giving 50% cytotoxicity – in data set [2] is > 50 µM.

With `Cc1ncnc2c1ncn2[C@H]1O[C@@H](CO)[C@H](O)[C@@H]1O`, in data set [1], the EC50 was > 500 µM. Further, the CC50 in data set [2] was > 500 µM.

Take `OC[C@H]1O[C@H](n2cnc3c(-c4cccs4)ncnc32)[C@@H](O)[C@H]1O`: it took 56 µM to reach a half-maximal effect in data set [1] (EC50). In addition, the CC50 in data set [2] and in data set [3] was > 100 µM throughout.

Turning to `OC[C@@H]1O[C@H](n2cnc3c(-c4ccccc4)ncnc32)[C@@H](O)[C@H]1O`, the EC50 in data set [1] was > 100 µM. Also, the CC50 in data set [2] was > 50 µM.

For `COc1ccc(-c2ncnc3c2ncn3[C@H]2OC(CO)[C@H](O)[C@@H]2O)cc1` (single isomer, unassigned), the EC50 in data set [1] is > 50 µM. Besides, in data set [2], the CC50 is > 100 µM.

For the molecule `OCc1ncnc2c1ncn2[C@H]1O[C@@H](CO)[C@H](O)[C@@H]1O`, the EC50 in data set [1] is > 500 µM. For the same molecule, in data set [2], the CC50 is > 500 µM.

As to `Nc1ncnc2c1ncn2[C@H]1O[C@@H](COP(=O)(O)O)[C@H](OP(=O)(O)O)[C@@H]1OP(=O)(O)O`, the result in data set [4] was inactive.

On to `OC[C@@H]1O[C@H](n2cnc3c(Cc4ccccc4)ncnc32)[C@@H](O)[C@H]1O`, for which, in data set [4], the result was inactive. In data set [1], this molecule gave an EC50 of 41 µM. Moreover, the CC50 in data set [2] and in data set [3] was > 500 µM throughout. Further, the IC50 – broadly, the concentration at which inhibition is half-maximal – in data set [5] was > 100 µM.

In the case of `OC[C@@H]1O[C@H](n2cnc3c(-c4ccco4)ncnc32)[C@@H](O)[C@H]1O`, the EC50 in data set [1] is > 100 µM. Further, the CC50 in data set [2] is > 100 µM.

Regarding `O=P(O)(O)OC[C@@H]1O[C@H](n2cnc3c(Cc4ccccc4)ncnc32)[C@@H](OP(=O)(O)O)[C@H]1OP(=O)(O)O`, the result in data set [4] was inactive.

In the case of `CCc1ncnc2c1ncn2[C@H]1O[C@@H](CO)[C@H](O)[C@@H]1O`, the EC50 in data set [1] is > 500 µM. The CC50 in data set [2] was > 500 µM.
